A short description of series [1]: Aqueous solubility of parent compound and sodium salt. Particulars: aqueous medium (not further specified).
Series [2] has as its target T1, perforin produced by an intact NK cell line (KHYG-1) (Homo sapiens, UniProt P14222).
T1 construct: the perforin is delivered by a functional NK cell; endogenous in cells; host or cells: KHYG-1 NK cells (K562 target cells)
T1 sequence (P14222 22-555): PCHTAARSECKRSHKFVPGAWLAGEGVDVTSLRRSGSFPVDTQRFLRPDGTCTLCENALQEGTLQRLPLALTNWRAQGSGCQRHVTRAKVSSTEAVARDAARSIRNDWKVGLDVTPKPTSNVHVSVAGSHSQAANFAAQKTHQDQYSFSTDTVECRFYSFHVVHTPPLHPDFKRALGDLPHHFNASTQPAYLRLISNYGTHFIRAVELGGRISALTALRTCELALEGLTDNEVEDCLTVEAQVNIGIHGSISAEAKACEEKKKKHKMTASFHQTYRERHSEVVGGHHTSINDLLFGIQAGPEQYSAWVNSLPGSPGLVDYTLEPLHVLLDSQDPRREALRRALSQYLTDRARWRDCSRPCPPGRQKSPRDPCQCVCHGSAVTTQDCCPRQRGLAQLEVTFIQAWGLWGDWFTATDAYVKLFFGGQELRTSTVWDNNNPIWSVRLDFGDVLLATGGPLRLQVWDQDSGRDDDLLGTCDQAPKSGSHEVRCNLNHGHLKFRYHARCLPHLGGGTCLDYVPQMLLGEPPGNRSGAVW
Kind of series: KHYG-1 cytotoxicity assay: perforin-induced lysis of K562 target cells co-incubated with KHYG-1 NK cells. In kind it is cell-based. Conditions: 20 μM, K562 targets, ± SEM. Here is the method:
KHYG-1 cells were washed and resuspended in RPMI + 0.1% BSA at 4 × 10^5 cells/mL, and an amount of 50 μL of KHYG-1 cells was dispensed to each well of a 96-well V-bottom plate. RPMI (50 μL) + 0.1% BSA or 10% (final concentration) of serum was added to each well. Then test compounds were added to KHYG-1 cells at various concentrations up to 20 μM and incubated at room temperature for 20 min. 1 × 10^6 K562 target cells were labeled with 75 μCi ^51Cr in 200 μL of RPMI for 90 min at 37 °C. Cells were washed as described above and resuspended in 5 mL of RPMI + 0.1% BSA. […] The percentage of specific cytotoxicity was calculated using the following formula: [drawing 4] and expressed as the mean of triplicate assays ± standard error of the mean.

Series [3] deals with T2, purified recombinant perforin (Mus musculus, UniProt P10820).
T2 sequence (P10820 21-554): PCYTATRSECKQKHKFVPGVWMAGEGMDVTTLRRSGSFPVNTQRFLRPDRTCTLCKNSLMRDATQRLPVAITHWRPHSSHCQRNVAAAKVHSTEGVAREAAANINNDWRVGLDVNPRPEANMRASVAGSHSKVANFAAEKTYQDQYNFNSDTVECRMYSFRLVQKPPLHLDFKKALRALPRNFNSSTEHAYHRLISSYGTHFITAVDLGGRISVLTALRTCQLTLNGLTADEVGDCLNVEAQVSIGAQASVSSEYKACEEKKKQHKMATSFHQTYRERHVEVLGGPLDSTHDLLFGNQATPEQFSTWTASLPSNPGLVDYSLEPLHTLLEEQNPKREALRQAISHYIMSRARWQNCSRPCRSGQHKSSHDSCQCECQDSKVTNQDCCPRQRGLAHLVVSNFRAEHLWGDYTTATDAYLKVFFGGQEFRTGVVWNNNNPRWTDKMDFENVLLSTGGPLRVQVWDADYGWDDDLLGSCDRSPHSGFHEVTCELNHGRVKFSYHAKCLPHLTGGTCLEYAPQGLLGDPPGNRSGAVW
Kind of series: cell-based. In kind it is cell-based. Particulars: lysis of Jurkat cells by purified recombinant perforin, 51Cr release, 0.1% BSA; average of at least three determinations; read-out: inhibition of Jurkat cell lysis, IC50.
Method: The ability of the compounds to inhibit the lysis of nucleated (Jurkat T lymphoma) cells in the presence of 0.1% BSA was measured by release of ^51Cr label. Jurkat target cells were labeled by incubation in medium with 100 μCi ^51Cr for 1 h. The cells were then washed three times to remove unincorporated isotope and resuspended at 1 × 10^5 cells per milliliter in RPMI buffer supplemented with 0.1% BSA. […] Each data point was performed in triplicate, and an IC50 was calculated from the range of concentrations described above.

Series [4] in a line: Toxicity to KHYG-1 NK cells (Trypan blue exclusion). In kind it is cell-based, human. Particulars: human, KHYG-1 NK cells; 20 μM, 4 h exposure, viability after 24 h, Trypan blue, ± SEM. Here is the method:
The toxicity assay was carried out in exactly the same manner as the killing assay above, but instead of adding the labeled K562 target cells, 100 μL of RPMI 0.1% BSA was added. Cells were incubated for 4 h at 37 °C and then washed ×3 in RPMI + 0.1% BSA. […] Trypan blue was added to each well. Viable (clear) cells and total (clear + blue) cells were counted, and the percentage of viable cells was calculated compared to DMSO treated cell control (% viability).

[5] abbreviates: 10% mouse serum, read-out: KHYG-1 inhibition (% at 20 μM), 10% serum.
The mark [6] stands for this setting: no serum, vs untreated control, read-out: KHYG-1 inhibition (% at 20 μM), no serum.

Results on nine compounds are retold here after paper PMC3865801 (Journal of Medicinal Chemistry, 2013).

Like-named read-outs stand apart in the source and are kept apart here.

What is called solubility is the dissolved amount per volume that the medium holds. What is called inhibition is the share of the control response that was lost under treatment. Usually IC50 stands for the concentration that gives 50% inhibition. Broadly, the viability is a per cent measure of how many cells are alive, often set against a control. A lower viability goes with a greater loss of cells. For the compound `O=C1NC(=S)N/C1=C/c1ccc(-c2ccc3c(c2)COC3=O)s1` [compound 4], the solubility in series [1] was 23 µg/mL. In addition, the inhibition at 20 µM in series [2] (setting [5]) was 38.9 ± 3.5%; in series [2] (setting [6]), 53 ± 2.6%. The IC50 in series [3] was found to be 780 nM. For the same compound, the viability at 4 h, 20 µM in series [4] stood at 88 ± 3%.

On to `O=C1NC(=S)N/C1=C/c1ccc(-c2ccc3c(c2)CNC3=O)s1` [compound 118], for which the solubility in series [1] amounted to 0.54 µg/mL. For the same compound, the inhibition at 20 µM was 55 ± 6.5% in series [2] (setting [5]) and 56 ± 7.2% in series [2] (setting [6]). The IC50 in series [3] worked out at 2550 nM. Besides, the viability at 4 h, 20 µM in series [4] came to 95 ± 3.5%.

In the case of `CN1Cc2cc(-c3ccc(/C=C4/NC(=S)NC4=O)s3)ccc2C1=O` [compound 119, (E,Z)-2-Methyl-5-(5-((5-oxo-2-thioxoimidazolidin-4-ylidene)methyl)thiophen-2-yl)isoindolin-1-one], in series [1], the solubility was determined as 0.13 µg/mL. Besides, the inhibition at 20 µM stood at 37 ± 2.4% in series [2] (setting [5]) and 42 ± 5.5% in series [2] (setting [6]). For the same compound, the viability at 4 h, 20 µM in series [4] stood at 28 ± 1.5%.

Regarding `O=C1NC(=S)N/C1=C/c1ccc(-c2ccc3c(c2)CN(CCO)C3=O)s1` [compound 125, (E,Z)-2-(2-Hydroxyethyl)-5-(5-((5-oxo-2-thioxoimidazolidin-4-ylidene)methyl)thiophen-2-yl)isoindolin-1-one], the solubility in series [1] amounted to 43 µg/mL. The inhibition at 20 µM in series [2] (setting [5]) came out at 24 ± 3.4%; in series [2] (setting [6]), 43 ± 5.8%. Further, the IC50 in series [3] came out at 780 nM. In series [4], the viability at 4 h, 20 µM stood at 81 ± 0.5%.

Regarding `O=C1NC(=S)N/C1=C/c1ccc(-c2ccc3c(c2)CN(CCCO)C3=O)s1` [compound 126], in series [1], the solubility was 1.78 µg/mL. The inhibition at 20 µM in series [2] (setting [5]) was determined as 17 ± 3%; in series [2] (setting [6]) it was 48 ± 7.9%. Besides, the IC50 in series [3] is 530 nM. The viability at 4 h, 20 µM in series [4] was found to be 90 ± 3%.

For `CCOC(=O)N1Cc2cc(-c3ccc(/C=C4/NC(=S)NC4=O)s3)ccc2C1=O` [compound 129], the solubility in series [1] was found to be 0.18 µg/mL. Further, the inhibition at 20 µM in series [2] (setting [5]) was 35 ± 9.5%; in series [2] (setting [6]), 46 ± 5.9%. Also, the IC50 in series [3] was determined as 550 nM. In addition, the viability at 4 h, 20 µM in series [4] amounted to 93 ± 4.1%.

Regarding `O=C1NC(=O)/C(=C\c2ccc(-c3ccc4c(c3)CNC4=O)s2)N1` [compound 136], the solubility in series [1] worked out at 11.6 µg/mL. In addition, the inhibition at 20 µM in series [2] (setting [5]) came to 50 ± 7.1%; in series [2] (setting [6]) it was 49 ± 9.8%. The IC50 in series [3] was determined as 400 nM. In series [4], the viability at 4 h, 20 µM stood at 93 ± 3%.

In the case of `O=C1NC(=S)N/C1=C/c1ccc(-c2ccc3c(c2)C(=O)NCC3)s1` [compound 168], the solubility in series [1] was found to be 0.13 µg/mL. In addition, the inhibition at 20 µM in series [2] (setting [5]) was 23 ± 7.1%; in series [2] (setting [6]), 51 ± 4%. In addition, the IC50 in series [3] was found to be 640 nM. For the same compound, in series [4], the viability at 4 h, 20 µM came out at 87 ± 4.1%.

Take `O=C1NC(=S)N/C1=C/c1ccc(-c2ccc3c(c2)CNC3=O)cn1` [compound 207]: the solubility in series [1] was 0.59 µg/mL. Moreover, the inhibition at 20 µM in series [2] (setting [5]) was 13 ± 3.8%; in series [2] (setting [6]) it was 43 ± 5.4%. Further, the IC50 in series [3] worked out at 630 nM. Besides, in series [4], the viability at 4 h, 20 µM was determined as 92 ± 2.6%.
